Experimental data as given in patent publication US7163921B1, “Peptide derivatives and medicinal compositions” (Nippon Shinyaku Co., Ltd., priority 2000, dated 2007).
Marks after values point to notes of the source that are not given here.

Tests used:
human μ receptor = biological target: T1, human μ receptor (Homo sapiens, UniProt P35372); test: μ Receptor binding test ([3H] diprenorphine displacement); settings: Ki for μ receptor divided by Ki for nociceptin receptor
T1 construct: purchased Receptor Biology
T1 sequence (P35372 whole entry): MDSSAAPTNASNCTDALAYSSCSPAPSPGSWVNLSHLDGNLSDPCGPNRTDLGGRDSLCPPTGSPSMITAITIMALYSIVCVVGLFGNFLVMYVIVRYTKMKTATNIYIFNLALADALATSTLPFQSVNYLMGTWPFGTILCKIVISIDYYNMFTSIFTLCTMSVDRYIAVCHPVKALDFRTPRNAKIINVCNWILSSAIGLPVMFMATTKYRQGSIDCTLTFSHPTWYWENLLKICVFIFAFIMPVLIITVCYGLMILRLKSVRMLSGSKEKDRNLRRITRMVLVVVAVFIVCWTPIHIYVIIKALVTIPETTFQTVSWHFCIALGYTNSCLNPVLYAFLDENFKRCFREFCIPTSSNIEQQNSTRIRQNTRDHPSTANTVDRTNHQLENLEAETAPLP
Procedure: A human μ receptor-expressing cell membrane preparation (Receptor Biology) was adjusted at the membrane protein level of 8.5 μg/mL in a Tris buffer [50 mM Tris-HCl (pH 7.8), 5 mM MgCl2, 1 mM EGTA, 0.1% BSA]. To this suspension, [^3H] diprenorphine (diluted to the final concentration of 0.13 nM in the Tris buffer) and a test substance were added, and the mixture was incubated at 25° C. for 90 minutes. Using a cell harvester and a washing solution [50 mM Tris-HCl (pH 7.8), 4° C.], the membrane was recovered onto the GF/B filter which had been pretreated with 0.3% PEI, and washed further 4 times. The filter was transferred into a vial, to which a scintillator was added, and then the radioactivity was measured using a liquid scintillation counter. A non-specific binding was regarded as a binding in the presence of 100 μM naloxone, and the difference between the total binding and the non-specific binding was regarded as the specific binding. Based on the % binding inhibition in the presence of a test substance, the IC50 was obtained and employed together with the Kd value of the [^3H] diprenorphine to calculate the Ki value of the test substance (mol/L; hereinafter referred to as M value). The M value was divided by the N value obtained in Test Example 1 to judge the selectivity of the receptor binding of the test substance.

Male mice (ddY) = test: Mouse formalin test; format: in vivo
Procedure: Male mice (ddY; 4 to 5 weeks old) were kept at a room temperature of 21 to 25° C. and a humidity of 45 to 65% in a cage having a 12-hour light/12-hour dark cycle while being fed with feed and water ad libitum, whereby being acclimatized for a period of 1 week or longer. 6 Animals in each group were employed.
The compound of Example 1 was dissolved in physiological saline. Each mouse was placed in a cylindrical tube whose diameter was about 4 cm, immobilized at its tail, and a 27G needle connected to a 1 mL syringe was inserted into its tail vein, via which 0.1 mL/10 g body weight of the drug solution was administered rapidly. In a control group, physiological saline was administered. After administration, an absorbent cotton was used for hemostasis, and the animal was returned to the observation cage. The dose of the compound of Example 1 was 1 mg or 3 mg per 1 kg body weight of each mouse.
Subsequently, each mouse was acclimatized sufficiently to the observation cage, and then placed in a retainer for the drug administration. 20 μL of a 1% formalin solution was subcutaneously administered into the plantar region of the hindpaw, and the mouse was returned to the observation cage, and examined for the duration of any aversive behavior such as licking or biting the administered hindpaw extremity over a period of 30 minutes using a stopwatch.

Row | SMILES | Selectivity (M value/N value) (human μ receptor) | Duration of aversive behavior (Male mice (ddY); 1 mg/kg via tail vein, 0 to 10 min after formalin administration, control 128.3) | Duration of aversive behavior (Male mice (ddY); 1 mg/kg via tail vein, 10 to 30 min after formalin administration, control 261.0) [s] | Duration of aversive behavior (Male mice (ddY); 3 mg/kg via tail vein, 0 to 10 min after formalin administration, control 128.3) | Duration of aversive behavior (Male mice (ddY); 3 mg/kg via tail vein, 10 to 30 min after formalin administration, control 261.0)
1 | N=C(N)NCCCCCCN[C@@H](Cc1ccc(O)cc1)C(=O)N[C@@H](Cc1ccc(O)cc1)C(=O)N[C@@H](CCCNC(=N)N)C(=O)N[C@@H](Cc1c[nH]c2ccccc12)C(N)=O [Example 1, N-α-6-Guanidinohexyl-L-tyrosyl-L-tyrosyl-L-arginyl-L-tryptophanamide] | 93 | 80.8** sec | 163.8 | 41.00** sec | 112.8** sec
2 | Cc1cc(C[C@H](NCCCCCCNC(=N)N)C(=O)N[C@@H](Cc2ccc(O)cc2)C(=O)N[C@@H](CCCNC(=N)N)C(=O)N[C@H](C)c2ccc3ccccc3c2)cc(C)c1O [Example 25, N-α-6-Guanidinohexyl-3,5-dimethyl-L-tyrosyl-L-tyrosyl-N-[(R)-1-(2-naphthyl)ethyl]-L-argininamide] | 15 |  |  |  | 
3 | Cc1cc(C[C@H](NCCCCCCNC(=N)N)C(=O)N[C@@H](Cc2cc(C)c(O)c(C)c2)C(=O)N[C@@H](CCCNC(=N)N)C(=O)N[C@H](C)c2ccc3ccccc3c2)cc(C)c1O [Example 27, N-α-6-Guanidinohexyl-3,5-dimethyl-L-tyrosyl-3,5-dimethyl-L-tyrosyl-N-[(R)-1-(2-naphthyl)ethyl]-L-argininamide] | 17 |  |  |  | 
